For the experiment, the system named is acetic acid sensitized rats. The experiment can be described thus: Behavioral response to graded colorectal distention (CRD) in neonatally acetic acid sensitized rats. To be noted: oral, 1.5 mg/kg body weight in corn oil daily for two weeks; graded CRD 10 mm-80 mm Hg; behavioral response grading 0-3. The class given is in vivo, Sprague Dawley rat. The protocol: Neonatal sensitization with acetic acid: Description of the model. It was previously shown that transient noxious stimulation of the colon during postnatal development can cause long-lasting hyperalgesia, despite complete resolution of the initiating event. In a variation of this technique, 0.3% acetic acid was instilled into the rectum of rats at postnatal days 7-10. […] By contrast, when rats are treated with acetic acid as adults, and tested after a similar period of time, no sensitization is observed. Sprague Dawley rat pups were sensitized on neonatal day 10 with acetic acid. In brief, a thin polyethylene tubing (P-90 was introduced gently into the rectum 2 cm from the anus. 0.2 ml of 0.5% glacial acetic acid in normal saline was injected through the tube into the colo rectum. The pups were allowed to grow into adults. When the rats were approximately eight weeks old they were weighed and their behavioral responses to graded (10 mm-80 mm Hg) colo rectal distention (CRD) was determined. Under light brevital (1%) anesthesia a polyethelene tube connected to a balloon (made out of a glove finger) was guided into the colo-rectum ˜8 cms from the rectum and the tube was fastened to the tail. The open end was connected to the barostat device. The rat was put into a rat restrainer allowing limited movement. […]

Regarding `CCC(=O)OCC(=O)[C@@]1(OC(=O)CC)[C@@H](C)C[C@H]2[C@@H]3CCC4=CC(=O)C=C[C@]4(C)[C@@]3(Cl)[C@@H](O)C[C@@]21C` [beclamethasone dipropionate], the “pain threshold to graded CRD compared to the vehicle treated group” value is listed as “higher pain threshold”.

The record behind these values is patent publication US7704985B2, “Treatment of irritable bowel syndrome and related bowel diseases” (The Board of Regents of the University of Texas System, priority 2002, dated 2010).
